In patent US9096538B2, “Pharmaceutical comprising PPAR agonist” (Senju Pharmaceutical Co., Ltd., priority 2005, dated 2015):

How the values were obtained:
[1] = test system: normal human corneal epithelial cell; experiment: Test Example 6: increase in cell number, normal human corneal epithelial cell, 48 hours (Cell Counting Kit-8); type: cell-based; conditions: 10^−8 M, no addition group = 100%, average ± standard deviation, N = 4 to 5
Procedure: (§1) A normal human corneal epithelial cell (KURABO) was used.
As the test substance, the following compounds were used. • PPARδ Agonist: GW-501516 (Alexis), GW-0742 (Sigma-Aldrich)
Only basal medium (no addition group) • [2] Basal medium+GW-501516 (final concentration: 0.01 μM) • [3] Basal medium+GW-0742 (final concentration: 0.01 μM)

[2] = test system: rabbit corneal epithelial cell; experiment: Test Example 1: increase in cell number, cultured rabbit corneal epithelial cell (Cell Counting Kit-8); type: cell-based; conditions: 48 hours, no addition group = 100%, average ± standard deviation, N = 5
Procedure: A male rabbit (Japanese white, […] LABES Co., Ltd.) was used. The experimental animal was used according to the International Guiding Principles for Biomedical Research Involving Animals.
A corneal epithelial cell was prepared from rabbit eyeballs. A cornea was excised from isolated eyeballs, and stored in Dulbecco's phosphate buffered saline (D-PBS; Invitrogen), and this was transferred to a clean bench. The following cell preparation procedures were all performed sterilely.
The isolated corneal segment was washed with D-PBS with 1% penicillin-streptomycin (Invitrogen) added thereto three times, and was transferred to a minimum essential medium (MEM; Invitrogen). A corneal endothelial cell and a Descemet's membrane of the corneal segment immersed in MEM were peeled with a knife (Alcon) for ocular operation, and the corneal segment (corneal stroma and corneal epithelium) after peeling was transferred to MEM to which dispase II (Roche Diagnostics) had been added to 2.4 U/mL. This was incubated at 37° C. for 1 hour and, thereafter, the dispase II-treated corneal segment was transferred to MEM. The corneal epithelium of the corneal segment immersed in MEM was peeled with the knife for ocular operation, and the corneal segment residue (corneal stroma) was removed from MEM. The peeled corneal epithelial cell and the MEM containing same were recovered in a 50 mL centrifuge tube, subjected to centrifugation at 1,500 rpm for 5 minutes at room temperature. The supernatant was discarded to give a corneal epithelial cell layer. To the corneal epithelial cell layer was added 1 mL of trypsin-EDTA (Invitrogen) and, after thorough mixing, the cells were incubated at 37° C. for 5 minutes to dissociate adhesion between the cells. To this was added 9 mL of MEM containing 10% fetal bovine serum (FBS; Invitrogen) to stop the enzymatic reaction, and this was subjected again to centrifugation at room temperature and 1,500 rpm for 5 minutes to obtain the corneal epithelial cell layer. To the resulting corneal epithelial cell layer was added […] of a serum-free liquid medium for proliferating a normal rabbit corneal epithelial cell (RCGM2; Kurabo Industries LTD.) to suspend the cell, and this was seeded into a culture dish (IWAKI) for culturing a cell having a diameter of 10 cm, to which 9 mL of RCGM2 had been added. […] The culture medium was exchanged with a fresh culture medium every 48 hours until the test day.
As the test substance, the following compounds were used. • PPARα agonist: WY-14643 (Calbiochem) and fenofibrate (Sigma-Aldrich) • PPARδ agonist: L-165041 (Sigma-Aldrich)
(§2) For studying the effect of promoting cell proliferation by each test substance, a culture medium prepared by removing a mouse-derived epithelial growth factor (mEGF) attached to RCGM2, from RCGM2, was used as a basal medium, while as a positive control for confirming the effect of promoting cell proliferation, a medium with an mEGF added thereto (basal medium+10 ng/mL mEGF) was used according to instructions of an RCGM2 preparation protocol.
As a culture dish for a test of cell proliferation promotion, a 96-well culture dish for tissue culture (Corning) was used. On the day before the test, each 50 μL of 0.01% type I collagen (Nitta Gelatin Inc.) was dispensed into each well of the culture dish, and coating was performed at 4° C. until immediately before the test. On the test day, after a type I collagen solution was removed, the bottom of the culture dish was washed three times using D-PBS, and this was used in the test as a collagen-treated culture dish.
In the test, a rabbit corneal epithelial cell which had been cultured to subconfluent in a culture dish having a diameter of 10 cm was used. After the culture medium was removed, the bottom of the culture dish was washed two times using D-PBS, to this was added 1 mL of trypsin-EDTA, this was incubated at 37° C. for 5 minutes and thereby, the cell was peeled from the bottom of the culture dish. […]

[3] = test system: monkey meibomian gland epithelial cell; experiment: Test Example 3: increase in cell number, cultured monkey meibomian gland epithelial cell (Cell Counting Kit-8); type: cell-based, cynomolgus monkey; conditions: 48 + 48 hours; for Cell proliferation (%): no addition group = 100%, average ± standard deviation, N = 5
Procedure: A female cynomolgus monkey (Environmental Biological Life Science Research Center) was used. The experimental animal was used according to the International Guiding Principles for Biomedical Research Involving Animals.
A meibomian gland epithelial cell was prepared from a monkey eyelid. An eyelid was isolated, and stored in Dulbecco's phosphate buffered saline (D-PBS; Invitrogen), and this was transferred to a clean bench. The following cell preparation procedures were all performed sterilely.
After the isolated eyelid was immersed in 80% ethanol for 30 seconds, the eyelid was washed with D-PBS with 1% penicillin-streptomycin (Invitrogen) added thereto three times, and transferred to a minimum essential medium (MEM; Invitrogen). A fat tissue and a muscle tissue surrounding a meibomian gland tissue were removed under a stereomicroscope, and this was transferred to MEM containing 0.475 U/mL of collagenase A (Roche Diagnostics) and 2.4 U/mL of dispase II (Roche Diagnostics), and incubated at 37° C. overnight. After completion of incubation, the enzyme-treated tissue was placed again under the stereomicroscope, eyelashes and an eyelid connective tissue were removed, and a meibomian gland tissue was isolated. To the isolated gland tissue was added 1 mL of trypsin-EDTA (Invitrogen), and this was incubated at 37° C. for 5 minutes. After incubation, to this was added 9 mL of MEM containing 10% FBS to stop the enzymatic reaction, then, suction and exhaustion were repeated five times using a 10 mL pipette and, further, five times using an injection syringe equipped with a 21 G injection needle to disperse tissue-constituting cells. […] The cell suspension which had passed through the filter was recovered in a 50 mL centrifuge tube, and subjected to centrifugation at room temperature and 1,500 rpm for 5 minutes. To a cell layer containing an objective cell obtained by centrifugation was added 80 μL of D-PBS containing 0.5% bovine serum albumin (BSA; Sigma-Aldrich) to sufficiently suspend the cell, to this was added 20 μL of Anti-Fibroblast Microbeads (Militenyi Biotec), and this was allowed to stand at room temperature for 30 minutes. After completion of the reaction with an antibody, to this was added 2 mL of D-PBS containing 0.5% BSA, and this was subjected again to centrifugation at room temperature and 1,500 rpm for 5 minutes. To a cell layer containing an objective cell obtained by centrifugation was added 1 mL of D-PBS containing 0.5% BSA to sufficiently suspend the cell, and this was added dropwise to an LD column (Militenyi Biotec) equilibrated in advance using a column washing solution (D-PBS containing 2 mM EDTA (Dojindo Laboratories) and 0.5% BSA). Then, 2 mL of the column washing solution was added dropwise to the LD column. […] The cell recovered in the centrifuge tube was subjected again to centrifugation at room temperature and 1,500 rpm for 5 minutes to remove the supernatant. To this precipitation was added 1 mL of Defined Keratinocyte-Serum Free Medium (DK-SFM; Invitrogen) to suspend the cell and thereby, a meibomian gland epithelial cell suspension was prepared. The prepared cell was seeded on a culture dish (IWAKI) for cell culturing having a diameter of 3.5 cm which had been coated with a type I collagen solution (Nitta Gelatin Inc.) in advance, and to which 3 mL of DK-SFM had been added. The seeded cell was cultured in an incubator (SANYO) set at 37° C., 5% CO2, 95% air, and 100% humidity, and the culture medium was exchanged with a fresh culture medium every 48 hours until the test day.
Each test substance was dissolved in ethanol (Wako Pure Chemical Industries, Ltd.) to a 200-fold concentration of a final concentration in the culture medium, and this was stored at −80° C. until immediately before use.
As a culture dish for a cell proliferation promotion test, a 96-well culture dish for tissue culture (Corning) was used.

[4] = test system: rabbit corneal epithelial cell; experiment: Test Example 2: increase in cell number, cultured rabbit corneal epithelial cell, 120 hours (Cell Counting Kit-8); type: cell-based; conditions: mEGF 10 ng/mL, no addition group = 100%, average ± standard deviation, N = 5
Procedure: A male rabbit (Japanese white, weight: about 1.5 kg, […] LABES Co., Ltd.) was used. The experimental animal was used according to the International Guiding Principles for Biomedical Research Involving Animals.
A rabbit corneal epithelial cell was prepared using the same process as that of (Test example 1).
As the test substance, the following compounds were used. • PPARδ agonist: L-165041 (Sigma-Aldrich) and GW-501516 (Alexis)
as §2
Collagen treatment of the culture dish was performed using the same process as that of (Test Example1).
In the test, a rabbit corneal epithelial cell which had been cultured to subconfluent in a culture dish having a diameter of 10 cm was used. After the culture medium was removed, the bottom of the culture dish was washed two times using D-PBS, to this was added 1 mL of trypsin-EDTA, this was incubated at 37° C. for 5 minutes and thereby, the cell was peeled from the bottom of the culture dish. After incubation, 9 mL of MEM containing 10% FBS was added to the culture dish to stop the enzymatic reaction, and this was subjected to centrifugation at room temperature and 1,500 rpm for 5 minutes to obtain a corneal epithelial cell layer. To the resulting cell was added an appropriate amount of RCGM2 to a cell concentration of 1×10^5 cells/mL to suspend the cell. Each 64 μL of this cell suspension was dispensed in each well at the cell number per bottom area (0.32 cm^2) of the collagen-treated 96-well culture dish for tissue culture of […]. […] After 24 hours from cell seeding, the culture medium was discarded, and each 100 μL of the following culture media were freshly dispensed into each well of the culture dish. • [1] Only basal medium (no addition group) • [2] Basal medium+mEGF (final concentration: 10 ng/mL; positive control group) • [3] Basal medium+L-165041 (final concentration: 0.1 μM and 1 μM) • [4] Basal medium+GW-501516 (final concentration: 0.01 μM and 0.1 μM)
The culture supernatant of each well was removed every 48 hours from exchange of the culture medium containing a test substance, and each 100 μL of the freshly prepared culture medium was dispensed into each well.

[5] = test system: normal human corneal epithelial cell; experiment: Test Example 5: increase in cell number, normal human corneal epithelial cell, 24 hours (Cell Counting Kit-8); type: cell-based; conditions: mEGF 1 ng/mL, no addition group = 100%, average ± standard deviation, N = 3 to 4
Procedure: as §1
As the test substance, the following compounds were used. PPARδ agonist: L-165041 (Sigma-Aldrich), GW-501516 (Alexis)
In addition, as a positive control for confirming the cell proliferation promoting effect, a medium in which a mouse-derived epithelial growth factor (mEGF) contained in an HCGS proliferation additive set (KURABO) was added to a basal medium (basal medium+1 ng/mL mEGF) was used.
This cell suspension was seeded on a fibronectin-coated multiwell plate (24 well, BECTON DICKINSON) so that the cell number became 2×10^4 cells/500 μL/well (since the bottom area is 2 cm^2, the number is 1×10^4 cells/cm^2).
Further, 24 hours thereafter, the culture medium was exchanged with each 400 μL of the following culture media. • [1] Only basal medium (no addition group) • [2] Basal medium+mEGF (final concentration: 1 ng/mL; positive control group) • [3] Basal medium+L-165041 (final concentration: 0.01 μM and 0.1 μM) • [4] Basal medium+GW-501516 (final concentration: 0.001 μM and 0.01 μM)

Cc1cc(SCc2sc(-c3ccc(C(F)(F)F)c(F)c3)nc2C)ccc1OCC(=O)O [GW-0742, (4-(((2-(3-fluoro-4-(trifluoromethyl)phenyl)-4-methyl-5-thiazolyl)methyl)thio)-2-methylphenoxy)acetic acid]
Cell proliferation (%) [1]: 124.1 ± 13.5%

Cc1cccc(Nc2cc(Cl)nc(SCC(=O)O)n2)c1C [WY-14643, ((4-chloro-6-((2,3-dimethylphenyl)amino)-2-pyrimidinyl)thio)acetic acid]
Cell proliferation (%) ([2]; 10^−6 M): 155.5 ± 9.4% | Cell proliferation (%) ([2]; 10^−7 M): 148.9 ± 15.0%

CC(C)OC(=O)C(C)(C)Oc1ccc(C(=O)c2ccc(Cl)cc2)cc1 [fenofibrate, 1-methylethyl 2-(4-(4-chlorobenzoyl)phenoxy)-2-methylpropionate]
Cell proliferation (%) ([3]; 10^−5 M): 127.8 ± 5.2% | Cell proliferation (%) ([3]; 10^−6 M): 114.5 ± 4.5% | cell proliferation compared to the no addition group (in words) ([3]; p<0.01 where significant): significantly higher than in the no addition group | Cell proliferation (%) ([2]; 10^−5 M): 147.0 ± 3.2% | Cell proliferation (%) ([2]; 10^−6 M): 147.3 ± 11.8%

Cc1c(C)c2c(c(C)c1O)CCC(C)(COc1ccc(CC3SC(=O)NC3=O)cc1)O2 (stereo not shown) [troglitazone]
Cell proliferation (%) ([3]; 10^−6 M): 99.9 ± 1.9% | Cell proliferation (%) ([3]; 10^−7 M): 101.6 ± 4.0%

mEGF: mouse-derived epithelial growth factor, positive control for cell proliferation (NSYPGCPSSYDGYCLNGGVCMHIESLDSYTCNCVIGYSGDRCQTRDLRWWELR; not fully specified; Epidermal growth factor; UniProt P01132 977-1029, looked up)
Cell proliferation (%) ([2]; mEGF 10 ng/mL): 144.1 ± 23.1% | Cell proliferation (%) [4]: 222.1 ± 50.9% | Cell proliferation (%) [5]: 112.1 ± 1.5%
